Experimental data taken from ChEMBL document CHEMBL1146318, “Synthesis and SAR of novel 2-arylthiazolidinones as selective analgesic N-type calcium channel blockers” (Bioorg Med Chem Lett, 2007).

Columns and labels:
[1] = target: Voltage-dependent N-type calcium channel subunit alpha-1B (Homo sapiens, UniProt Q00975); assay: Inhibition of calcium channel Cav2.2 in IMR32 cells; format: cell-based, IMR-32
[2] = Inhibition of calcium channel L type in IMR32 cells; format: cell-based, Homo sapiens; details: imr-32
Homo sapiens = species: Homo sapiens; assay: Selectivity for calcium channel Cav2.2 over calcium channel L type

Voltage-dependent N-type calcium channel subunit alpha-1B, sequence (Q00975 whole entry): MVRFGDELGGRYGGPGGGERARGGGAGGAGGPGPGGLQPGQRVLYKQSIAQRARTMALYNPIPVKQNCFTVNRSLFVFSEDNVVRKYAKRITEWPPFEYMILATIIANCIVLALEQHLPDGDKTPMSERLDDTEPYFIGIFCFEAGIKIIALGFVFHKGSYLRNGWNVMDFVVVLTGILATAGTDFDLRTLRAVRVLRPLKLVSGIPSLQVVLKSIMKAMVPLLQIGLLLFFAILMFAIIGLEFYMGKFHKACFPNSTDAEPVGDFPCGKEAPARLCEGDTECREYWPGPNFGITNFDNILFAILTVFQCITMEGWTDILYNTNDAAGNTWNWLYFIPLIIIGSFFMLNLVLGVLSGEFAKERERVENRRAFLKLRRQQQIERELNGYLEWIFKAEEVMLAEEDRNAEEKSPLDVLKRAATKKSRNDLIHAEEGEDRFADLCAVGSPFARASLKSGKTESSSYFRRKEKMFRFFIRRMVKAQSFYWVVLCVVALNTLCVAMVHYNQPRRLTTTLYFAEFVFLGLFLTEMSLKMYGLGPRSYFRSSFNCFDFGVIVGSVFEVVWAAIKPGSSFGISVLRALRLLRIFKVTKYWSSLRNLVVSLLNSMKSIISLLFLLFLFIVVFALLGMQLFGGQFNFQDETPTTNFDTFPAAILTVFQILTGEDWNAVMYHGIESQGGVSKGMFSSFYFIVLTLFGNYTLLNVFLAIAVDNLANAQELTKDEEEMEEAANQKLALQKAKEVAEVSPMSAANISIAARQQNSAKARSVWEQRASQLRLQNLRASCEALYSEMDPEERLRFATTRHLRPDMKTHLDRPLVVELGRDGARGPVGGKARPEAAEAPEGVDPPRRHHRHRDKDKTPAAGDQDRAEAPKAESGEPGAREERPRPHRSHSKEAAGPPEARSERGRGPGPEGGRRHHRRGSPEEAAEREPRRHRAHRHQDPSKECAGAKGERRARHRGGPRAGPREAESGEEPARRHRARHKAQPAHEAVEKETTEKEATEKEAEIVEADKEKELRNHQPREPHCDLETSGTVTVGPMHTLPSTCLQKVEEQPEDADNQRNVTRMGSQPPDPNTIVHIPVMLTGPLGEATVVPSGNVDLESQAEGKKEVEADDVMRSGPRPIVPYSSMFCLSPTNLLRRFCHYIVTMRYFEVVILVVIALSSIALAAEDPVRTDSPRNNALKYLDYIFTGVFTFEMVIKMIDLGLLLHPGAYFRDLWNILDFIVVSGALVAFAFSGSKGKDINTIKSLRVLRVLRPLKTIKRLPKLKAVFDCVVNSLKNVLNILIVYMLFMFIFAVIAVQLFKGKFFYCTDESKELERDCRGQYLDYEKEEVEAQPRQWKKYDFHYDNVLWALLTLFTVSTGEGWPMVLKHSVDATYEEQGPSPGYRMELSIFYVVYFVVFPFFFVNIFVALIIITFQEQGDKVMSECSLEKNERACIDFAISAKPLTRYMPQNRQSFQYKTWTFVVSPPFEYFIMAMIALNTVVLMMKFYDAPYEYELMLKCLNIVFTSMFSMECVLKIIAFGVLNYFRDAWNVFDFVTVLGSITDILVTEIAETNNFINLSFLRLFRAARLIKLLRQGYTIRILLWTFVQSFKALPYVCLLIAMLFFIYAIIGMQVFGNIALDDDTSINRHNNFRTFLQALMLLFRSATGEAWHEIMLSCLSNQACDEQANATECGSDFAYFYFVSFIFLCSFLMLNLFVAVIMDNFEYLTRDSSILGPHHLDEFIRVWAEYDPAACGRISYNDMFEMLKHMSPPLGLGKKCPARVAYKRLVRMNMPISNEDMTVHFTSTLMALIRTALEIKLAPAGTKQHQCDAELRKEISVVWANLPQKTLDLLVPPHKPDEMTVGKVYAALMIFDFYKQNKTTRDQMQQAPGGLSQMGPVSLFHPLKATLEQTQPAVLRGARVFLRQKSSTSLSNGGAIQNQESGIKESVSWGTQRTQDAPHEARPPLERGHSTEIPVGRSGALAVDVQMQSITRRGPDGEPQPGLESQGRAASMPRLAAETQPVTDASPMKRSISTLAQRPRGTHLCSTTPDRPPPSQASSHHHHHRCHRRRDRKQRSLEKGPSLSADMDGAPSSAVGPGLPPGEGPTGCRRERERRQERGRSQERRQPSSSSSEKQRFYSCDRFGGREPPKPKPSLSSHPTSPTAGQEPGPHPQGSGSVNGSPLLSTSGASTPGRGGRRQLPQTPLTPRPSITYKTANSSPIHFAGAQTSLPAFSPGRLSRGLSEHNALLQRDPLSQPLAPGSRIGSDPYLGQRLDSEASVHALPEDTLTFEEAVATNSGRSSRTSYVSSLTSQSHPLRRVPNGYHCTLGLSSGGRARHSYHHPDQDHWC

| IC50 [1] | IC50 [2] | Ratio IC50 (Homo sapiens) | Structure (SMILES) |
| --- | --- | --- | --- |
| 4.44 µM | 12.9 µM |  | Cc1ccc(-c2ccncc2[C@H]2SCC(=O)N2CC(C)C)cc1 (stereo in doubt; 60) [listing 1 of 2 here] |
| 0.77 µM | 22.9 µM |  | CC(C)CN1C(=O)CS[C@@H]1c1cnccc1-c1ccc(C(F)(F)F)cc1 (stereo in doubt; 59) [listing 1 of 2 here] |
| 3.98 µM | 16.4 µM | 4.1 | CC(C)CN1C(=O)CSC1c1cnccc1-c1ccccc1 (stereo unspecified) |
| 0.53 µM | 4.16 µM | 7.8 | C=Cc1ccc(-c2cnccc2C2SCC(=O)N2CC(C)C)cc1 (stereo unspecified) |
| 8.93 µM | 20.6 µM | 2.3 | COc1ccc(-c2ncccc2C2SCC(=O)N2CC(C)C)cc1 (stereo unspecified) |
| 1.34 µM | 2.92 µM | 2.2 | CC(C)CNC(=O)CC1SC(c2ccc(F)c(Br)c2)N(CCc2ccccn2)C1=O (stereo unspecified) |
| 4.15 µM | 11.7 µM | 2.8 | CC(C)CN1C(=O)CSC1c1ccncc1-c1ccc(F)cc1 (stereo unspecified) |
|  |  | 29.1 | CC(C)CN1C(=O)CS[C@@H]1c1cnccc1-c1ccc(C(F)(F)F)cc1 (stereo in doubt; 59) [listing 2 of 2 here] |
| 0.7 µM | 6.2 µM | 8.9 | CC(C)CN1C(=O)CSC1c1cccnc1-c1ccc(Br)cc1 (stereo unspecified) |
| 0.5 µM | 3.08 µM | 6.1 | CC(C)CN1C(=O)CSC1c1ccncc1-c1ccc(Br)cc1 (stereo unspecified) |
| 1.26 µM | 7.49 µM | 5.9 | CC(C)CN1C(=O)CSC1c1cccnc1-c1ccc(Cl)cc1 (stereo unspecified) |
| 10.7 µM | 18.2 µM | 1.7 | CN(C)c1ccc(-c2cnccc2C2SCC(=O)N2C2CCCC2)cc1 (stereo unspecified) |
| 1.32 µM | 2.01 µM | 1.5 | O=C1CSC(c2cnccc2-c2ccc(Br)cc2)N1C1CCCCC1 (stereo unspecified) |
| 1.67 µM | 0.78 µM | 0.5 | Fc1ccc(C(c2ccc(F)cc2)N2CCN(C/C=C/c3ccccc3)CC2)cc1 [FLUNARIZINE] |
| 0.66 µM | 8.41 µM | 12.8 | CC(C)CN1C(=O)CSC1c1cnccc1-c1ccc(Br)cc1 (stereo unspecified) |
| 8.13 µM | > 30 µM |  | O=C1CS(=O)(=O)C(c2ccc(F)c(Br)c2)N1CCc1ccccn1 (stereo unspecified) |
| 1.3 µM | 4.69 µM | 3.6 | O=C1CSC(c2cnccc2-c2ccc(Br)cc2)N1C1CC1 (stereo unspecified) |
| 0.63 µM | 10.3 µM | 16.3 | O=C1CSC(c2cnccc2-c2ccc(Br)cc2)N1C1CCCC1 (stereo unspecified) |
| 0.56 µM | 5.44 µM | 9.7 | CC(C)CN1C(=O)CSC1c1cccnc1-c1ccc(C(F)(F)F)cc1 (stereo unspecified) |
| 1.68 µM | 9.51 µM | 5.6 | O=C1CSC(c2ccc(F)c(Br)c2)N1CCc1ccccn1 (stereo unspecified) |
| 4.92 µM | 12.9 µM | 2.6 | CC(C)CN1C(=O)CSC1c1cccnc1-c1ccc(F)cc1 (stereo unspecified) |
| 1.07 µM | 10.3 µM | 9.6 | CC(C)CN1C(=O)CSC1c1cnccc1-c1ccc(C(F)(F)F)cc1 (stereo unspecified) |
| 2.41 µM | 11.5 µM | 4.8 | O=C1CSC(c2cccc(C(F)(F)F)c2)N1CCc1ccccn1 (stereo unspecified) |

| IC50 [1] | IC50 [2] | Ratio IC50 (Homo sapiens) | Structure (SMILES) |
| --- | --- | --- | --- |
| 1.4 µM | 13.7 µM | 9.5 | COc1ccc(-c2cnccc2C2SCC(=O)N2CC(C)C)cc1 (stereo unspecified) |
| 0.6 µM | 2.18 µM | 3.6 | CC(C)CN1C(=O)CSC1c1cnccc1-c1ccc(Cl)cc1 (stereo unspecified) |
| 0.49 µM | 8.2 µM | 16.7 | Cc1ccc(-c2ccncc2C2SCC(=O)N2CC(C)C)cc1 (stereo unspecified) |
|  |  | 2.9 | Cc1ccc(-c2ccncc2[C@H]2SCC(=O)N2CC(C)C)cc1 (stereo in doubt; 60) [listing 2 of 2 here] |
| 0.88 µM | 5.54 µM | 6.3 | CCc1ccc(-c2ccncc2C2SCC(=O)N2CC(C)C)cc1 (stereo unspecified) |
| 4.42 µM | 29.3 µM | 6.6 | CC(C)CN1C(=O)COC1c1cnccc1-c1ccc(Br)cc1 (stereo unspecified) |
| 0.59 µM | 8.03 µM | 13.6 | Cc1ccc(-c2cnccc2C2SCC(=O)N2CC(C)C)cc1 (stereo unspecified) |
| 29.8 µM | > 30 µM |  | O=C1C[S+]([O-])C(c2ccc(F)c(Br)c2)N1CCc1ccccn1 (stereo unspecified) |
| 3.97 µM | 15 µM | 3.8 | CC(C)CN1C(=O)C[S+]([O-])C1c1cnccc1-c1ccc(Br)cc1 (stereo unspecified) |
| 1.37 µM | 4.25 µM | 3.1 | O=C1CSC(c2ccncc2-c2ccc(C(F)(F)F)cc2)N1C1CCCC1 (stereo unspecified) |
| 0.73 µM | 23.2 µM |  | Cc1ccc(-c2ccncc2[C@H]2SCC(=O)N2CC(C)C)cc1 (stereo in doubt; 61) [listing 1 of 2 here] |
|  |  | 31.8 | Cc1ccc(-c2ccncc2[C@H]2SCC(=O)N2CC(C)C)cc1 (stereo in doubt; 61) [listing 2 of 2 here] |
| 1.33 µM | 4.23 µM | 3.2 | C=Cc1ccc(-c2ncccc2C2SCC(=O)N2CC(C)C)cc1 (stereo unspecified) |
| 1.29 µM | 6.66 µM | 5.2 | CC(C)CN1C(=O)CSC1c1cnccc1-c1ccc(F)cc1 (stereo unspecified) |
| 0.58 µM | 4.58 µM | 7.9 | CC(C)CN1C(=O)CSC1c1ccncc1-c1ccc(Cl)cc1 (stereo unspecified) |
| 0.21 µM | 2.33 µM | 11.2 | CCC(C)N1C(=O)CSC1c1cnccc1-c1ccc(Br)cc1 (stereo unspecified) |
| 1.96 µM | 12.5 µM | 6.4 | Cc1ccc(-c2ncccc2C2SCC(=O)N2CC(C)C)cc1 (stereo unspecified) |
| 1.29 µM | 2.08 µM | 1.6 | CC(C)CNC(=O)CC1SC(c2cccc(C(F)(F)F)c2)N(CCc2ccccn2)C1=O (stereo unspecified) |
| 0.51 µM | 9.99 µM | 19.5 | C=Cc1ccc(-c2ccncc2C2SCC(=O)N2CC(C)C)cc1 (stereo unspecified) |
| 3.32 µM | 12.9 µM |  | CC(C)CN1C(=O)CS[C@@H]1c1cnccc1-c1ccc(C(F)(F)F)cc1 (stereo in doubt; 58) [listing 1 of 2 here] |
|  |  | 3.9 | CC(C)CN1C(=O)CS[C@@H]1c1cnccc1-c1ccc(C(F)(F)F)cc1 (stereo in doubt; 58) [listing 2 of 2 here] |
| 2.43 µM | 1.48 µM | 0.6 | COc1ccc(CN2CCN(C(c3ccc(F)cc3)c3ccc(F)cc3)CC2)c(OC)c1OC [LOMERIZINE] |
